Measurements from patent US20070225252A1, “Ketogenic Saccharides” (priority 2004, published 2007).

Assay: Ketogenesis in rats in vivo (plasma (R)-3-hydroxybutyrate after oral gavage)
Set-up: species or system Male Sprague-Dawley rats
Settings: rat, ANOVA/Dunnett P<0.05
Experimental: Male Sprague-Dawley rats (weight range 200-250 g Charles River, Margate, Kent) were group housed in polypropylene cages at a temperature of 21±4° C. and 55±20% humidity and on a standard light/dark cycle. Animals had free access to a standard pelleted rat diet and tap water at all times. Animals were accustomed to these conditions for at least one week before experimentation.
Compounds were administered by oral gavage (po). Control animals received the appropriate vehicle via the same route. The experiment was performed over 2 days (ie 2 compounds were tested per day). Blood samples were taken by cardiac puncture after the animals were killed by a British Home Office Schedule 1 method. The terminal blood sample was collected into suitable plasma preparation tubes (EDTA-coated tubes). Plasma samples were initially frozen on dry ice and transferred to a −75° C. freezer until required for subsequent analysis (spectrophotometric analysis of (R)-3-hydroxybutyrate).
Sodium DL-β-hydroxybutyrate (H-6501 Lot 111K2618) was obtained from Sigma A stock solution of β-hydroxybutyrate (40 mM DL racemate equivalent to 20 mM D-isomer) was prepared in 0.9% saline solution, kept at 4° C. and used to generate appropriate dilutions for an assay standard curve.
Commercial clinical assay kits for the determination of D-β-hydroxybutyrate were obtained from Randox Laboratories (Antrim, UK). Kits were obtained in two pack sizes (Ranbut RB1007: 10×10 ml and RB1008: 10×50 ml) but were otherwise identical. […] The kit relies on measuring the appearance of NADH via the activity of β-hydroxybutyrate dehydrogenase measured as an increase of OD340 nm. […]
The protocol supplied with the Ranbut kits was for a discrete (cuvette-based) spectrophotometzic assay, so the protocol was modified for suitability with a 96-well microplate format using blank, flat-bottomed microplates (Greiner PS 655101 Lot 98 35 01). […] Standard dilutions and samples were pipetted a single plate at a time and preincubated at 37° C. for 15 minutes in the sample compartment of a Molecular Devices VERSAmax tunable microplate reader: The appropriate volume of assay reagent was reconstituted, according to instructions, using distilled water and preincubated at 37° C. for 15 minutes using a static water bath. […] The plate was reloaded, mixed and then the change in OD340 nm followed in kinetic mode with a reading at every 15 seconds for a total of 2 minutes. The reaction rate was then determined from the OD increase over a suitable 1 minute period, after allowing a necessary period for the reaction rate to settle. The rate between 45 seconds and 105 seconds was used as the default measuring period, though occasionally a different period was used as necessary (eg if an aberrant reading was obtained at one of these time-points). […]

Substance: glucose (R)-3-hydroxybutyrate ester [KTX 0310]
- increases in plasma 3-hydroxybutyrate concentrations (ketogenesis) (440 mg/kg po, blood sampling 30, 120, 240 min vs vehicle): did not evoke significant ketogenesis

Substance: fructose (R)-3-hydroxybutyrate ester [KTX 0311]
- increases in plasma 3-hydroxybutyrate concentrations (ketogenesis) (441 mg/kg po, blood sampling 30, 120, 240 min vs vehicle baseline): significant increases

Substance: arabinose (R)-3-hydroxybutyrate ester [KTX 0312]
- increases in plasma 3-hydroxybutyrate concentrations (ketogenesis) (351 mg/kg po, blood sampling 30, 120, 240 min vs vehicle): did not evoke significant ketogenesis

Substance: sorbitol 3-hydroxybutyrate tri-ester [KTX 0313]
- increases in plasma 3-hydroxybutyrate concentrations (ketogenesis) (300 mg/kg po, blood sampling 30, 120, 240 min vs vehicle baseline): significant increases
